Read-outs that look alike come from different tables or passages of the source.
Legend:
[1] = biological target: T1, DGKα (hDGKalpha(1-735)-N-His) (Homo sapiens, UniProt P23743); test: In vitro DGK inhibition assay, DGKalpha ADP Glo (in house); type: biochemical; conditions: 4 nM DGKα, 25 μM ATP, 125 uM DLG in liposomes, 1 hour reaction
T1 construct: hDGKalpha(1-735)-N-His; His (N); made in house; host or cells: Sf21 insect cells (baculovirus)
Procedure, shortened: (§1)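 ADP-Glo luminescence measured ADP formed over 1 h by Sf21-expressed full-length human enzymes: DGKα at 4 nM with 25 µM ATP, DGKζ at 2 nM with 50 µM ATP, both on 125 µM DLG in PS/PC liposomes. Dose–response used 11 threefold dilutions at 2% final DMSO.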

[2] = biological target: T2, DGKζ (hDGKzeta(1-928)-N-His) (Homo sapiens, UniProt Q13574); test: In vitro DGK inhibition assay, DGKzeta ADP Glo (in house); type: biochemical; conditions: 2 nM DGKζ, 50 μM ATP, 125 uM DLG in liposomes, 1 hour reaction
T2 construct: hDGKzeta(1-928)-N-His; His (N); made in house; host or cells: Sf21 insect cells (baculovirus)
T2 sequence (Q13574 whole entry): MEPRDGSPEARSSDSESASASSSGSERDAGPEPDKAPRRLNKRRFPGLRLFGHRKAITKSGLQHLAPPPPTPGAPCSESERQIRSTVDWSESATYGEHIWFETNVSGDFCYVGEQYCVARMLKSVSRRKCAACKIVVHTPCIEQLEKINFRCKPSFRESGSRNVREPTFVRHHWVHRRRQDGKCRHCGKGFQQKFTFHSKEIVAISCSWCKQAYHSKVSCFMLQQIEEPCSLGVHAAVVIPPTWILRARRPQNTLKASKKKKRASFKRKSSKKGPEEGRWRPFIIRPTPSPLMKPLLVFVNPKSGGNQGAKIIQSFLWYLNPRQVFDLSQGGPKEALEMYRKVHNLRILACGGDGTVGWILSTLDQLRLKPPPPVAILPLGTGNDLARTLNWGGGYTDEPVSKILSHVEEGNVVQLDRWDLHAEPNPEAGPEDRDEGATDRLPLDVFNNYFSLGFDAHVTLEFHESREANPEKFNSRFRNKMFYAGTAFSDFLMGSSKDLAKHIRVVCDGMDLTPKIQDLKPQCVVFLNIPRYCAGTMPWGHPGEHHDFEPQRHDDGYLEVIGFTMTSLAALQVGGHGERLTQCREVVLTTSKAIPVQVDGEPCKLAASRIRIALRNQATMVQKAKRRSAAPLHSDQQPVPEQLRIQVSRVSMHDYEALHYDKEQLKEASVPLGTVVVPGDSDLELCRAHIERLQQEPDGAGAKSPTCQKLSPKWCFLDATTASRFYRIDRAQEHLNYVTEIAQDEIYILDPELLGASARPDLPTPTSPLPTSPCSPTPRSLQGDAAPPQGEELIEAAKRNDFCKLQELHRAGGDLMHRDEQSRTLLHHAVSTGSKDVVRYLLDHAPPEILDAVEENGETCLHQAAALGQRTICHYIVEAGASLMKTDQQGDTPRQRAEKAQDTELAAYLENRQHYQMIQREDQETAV
Procedure, shortened: as §1

primary human T-cells = test: IL2 secretion measurements (24 h, CD3-stimulated T-cells, PBS counter screen); type: cell-based; conditions: for Emax IL2 (% activation): CD3 condition, normalised to DMSO (neutral) and 20 μM reference compound A1 = 100%; for EC50: CD3-stimulated primary human T-cells, IL2 secretion, fitted sigmoidal curve, read-out: Tcell IL2 CD3 EC50
Procedure, shortened: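 IL-2 secretion was measured by ProQuantum or ELISA after 24 h culture of expanded human T-cells with compound, on CD3-antibody-coated plates or PBS counter-screen plates. Dosing used 5–6 points from a 20 or 10 μM final top at 3.333-fold steps in 0.2% DMSO. EC50/Emax were scaled between DMSO and 20 μM reference A1.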

T1 sequence (P23743 whole entry): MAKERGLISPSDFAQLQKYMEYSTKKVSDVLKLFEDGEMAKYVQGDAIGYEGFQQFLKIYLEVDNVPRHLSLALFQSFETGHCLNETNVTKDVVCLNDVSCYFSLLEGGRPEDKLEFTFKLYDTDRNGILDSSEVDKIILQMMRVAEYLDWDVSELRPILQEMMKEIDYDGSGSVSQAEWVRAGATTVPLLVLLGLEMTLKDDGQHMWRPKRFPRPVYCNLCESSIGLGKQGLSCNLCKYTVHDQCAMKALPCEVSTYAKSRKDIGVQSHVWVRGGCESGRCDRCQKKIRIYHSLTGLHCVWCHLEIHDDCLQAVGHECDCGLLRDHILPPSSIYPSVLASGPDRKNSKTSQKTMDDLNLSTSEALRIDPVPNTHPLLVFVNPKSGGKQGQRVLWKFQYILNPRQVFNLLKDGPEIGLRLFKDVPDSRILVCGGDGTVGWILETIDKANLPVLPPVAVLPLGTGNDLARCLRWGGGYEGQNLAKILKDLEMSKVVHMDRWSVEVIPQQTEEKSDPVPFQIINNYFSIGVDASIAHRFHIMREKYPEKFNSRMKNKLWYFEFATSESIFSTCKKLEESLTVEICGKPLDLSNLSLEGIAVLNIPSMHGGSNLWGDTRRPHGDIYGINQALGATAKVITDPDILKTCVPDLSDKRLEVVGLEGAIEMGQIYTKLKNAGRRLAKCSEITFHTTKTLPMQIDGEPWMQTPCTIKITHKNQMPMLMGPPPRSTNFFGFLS

| SMILES | IC50 [1] | IC50 [2] | Emax IL2 (% activation) (primary human T-cells) | EC50 (primary human T-cells; Homo sapiens, T-cell) | EC50 (primary human T-cells) |
| --- | --- | --- | --- | --- | --- |
| CC(C)(C#N)c1nnc(-c2ccc3c(c2)N(Cc2ccc(-c4cnn(C(F)(F)F)c4)cc2)C(=O)[C@@H](N)CS3(=O)=O)o1 [Example 115, 2-[5-[(3R)-3-amino-1,1,4-trioxo-5-[[4-[1-(trifluoromethyl)pyrazol-4-yl]phenyl]methyl]-2,3-dihydro-1λ^6,5-benzothiazepin-7-yl]-1,3,4-oxadiazol-2-yl]-2-methyl-propanenitrile] | 0.585 µM | 0.803 µM | 112 % activation | 0.507 µM |  |
| CC(C)(C#N)c1nnc(-c2ccc3c(c2)N(Cc2ccc(-c4ncc(OC(F)(F)F)cn4)cc2)C(=O)[C@@H](N)CS3(=O)=O)o1 [Example 117] | 1.14 µM | 1.01 µM | 114 % activation | 0.587 µM |  |
| CC(C)(C#N)c1nnc(-c2ccc3c(c2)N(Cc2ccc(-c4ccc(OC(F)(F)F)cc4)nc2)C(=O)[C@@H](N)CS3(=O)=O)o1 [Example 119, 2-[5-[(3R)-3-amino-1,1,4-trioxo-5-[[6-[4-(trifluoromethoxy)phenyl]-3-pyridyl]methyl]-2,3-dihydro-1λ^6,5-benzothiazepin-7-yl]-1,3,4-oxadiazol-2-yl]-2-methyl-propanenitrile] | 3.45 µM | 1.63 µM | 102 % activation | 1.28 µM |  |
| CC(C)(C#N)c1nnc(-c2ccc3c(c2)N(Cc2ccc(-n4nnc(C(F)(F)F)n4)cc2)C(=O)[C@@H](N)CS3(=O)=O)o1 [Example 120, 2-[5-[(3R)-3-amino-1,1,4-trioxo-5-[[4-[5-(trifluoromethyl)tetrazol-2-yl]phenyl]methyl]-2,3-dihydro-1λ^6,5-benzothiazepin-7-yl]-1,3,4-oxadiazol-2-yl]-2-methyl-propanenitrile] | 13.5 µM | 2.02 µM | 135 % activation | 1.33 µM |  |
| CC(C)(C#N)c1nnc(-c2ccc3c(c2)N(Cc2ccc(-c4ccc(OC(F)(F)C(F)(F)F)cn4)cc2)C(=O)[C@@H](N)CS3(=O)=O)o1 [Example 129, 2-[5-[(3R)-3-amino-1,1,4-trioxo-5-[[4-[5-(1,1,2,2,2-pentafluoroethoxy)-2-pyridyl]phenyl]methyl]-2,3-dihydro-1λ^6,5-benzothiazepin-7-yl]-1,3,4-oxadiazol-2-yl]-2-methyl-propanenitrile] | 1.68 µM | 0.948 µM | 187 % activation | 0.552 µM |  |
| C[C@@](N)(c1nnc(-c2ccc3c(c2)N(Cc2ccc(-c4ccc(OC(F)(F)F)cn4)cc2)C(=O)[C@@H](N)CS3(=O)=O)o1)C(F)(F)F [Example 153, (3R)-3-amino-7-[5-[(1R)-1-amino-2,2,2-trifluoro-1-methyl-ethyl]-1,3,4-oxadiazol-2-yl]-1,1-dioxo-5-[[4-[5-(trifluoromethoxy)-2-pyridyl]phenyl]methyl]-2,3-dihydro-1λ^6,5-benzothiazepin-4-one] | 2.05 µM | 2.25 µM | 193 % activation | 0.245 µM |  |
| C[C@@](N)(c1nnc(-c2ccc3c(c2)N(Cc2ccc(-c4ccc(C(F)(F)F)cn4)cc2)C(=O)[C@@H](N)CS3(=O)=O)o1)C(F)(F)F [Example 154, (3R)-3-amino-7-[5-[(1R)-1-amino-2,2,2-trifluoro-1-methyl-ethyl]-1,3,4-oxadiazol-2-yl]-1,1-dioxo-5-[[4-[5-(trifluoromethyl)-2-pyridyl]phenyl]methyl]-2,3-dihydro-1λ^6,5-benzothiazepin-4-one] | 23.6 µM | 3.1 µM | 127 % activation | 0.991 µM |  |
| C[C@@](N)(c1nnc(-c2ccc3c(c2)N(Cc2ccc(-n4nnc(C(F)(F)F)n4)cc2)C(=O)[C@@H](N)CS3(=O)=O)o1)C(F)(F)F [Example 156, (3R)-3-amino-7-[5-[(1R)-1-amino-2,2,2-trifluoro-1-methyl-ethyl]-1,3,4-oxadiazol-2-yl]-1,1-dioxo-5-[[4-[5-(trifluoromethyl)tetrazo 1-2-yl]phenyl]methyl]-2,3-dihydro-1λ^6,5-benzothiazepin-4-one] | 17.8 µM | 2.96 µM | 554 % activation | 2.11 µM |  |
| COC(=O)N1CC2CC(c3nnc(-c4ccc5c(c4)N(Cc4ccc(-c6noc(C(F)(F)F)n6)cc4)C(=O)[C@@H](N)CS5(=O)=O)o3)(C2)C1 [Example 158, methyl 1-[5-[(3R)-3-amino-1,1,4-trioxo-5-[[4-[5-(trifluoromethyl)-1,2,4-oxadiazol-3-yl]phenyl]methyl]-2,3-dihydro-1λ^6,5-benzothiazepin-7-yl]-1,3,4-oxadiazol-2-yl]-3-azabicyclo[3.1.1]heptane-3-carboxylate] | > 60 µM | 1.13 µM | 345 % activation |  | 1.34 µM |

The next lines start with results.

| IC50 [1] | IC50 [2] | SMILES | Emax IL2 (% activation) (primary human T-cells) | EC50 (primary human T-cells; Homo sapiens, T-cell) | EC50 (primary human T-cells) |
| --- | --- | --- | --- | --- | --- |
| > 62.5 µM | 1.13 µM | CC(C)(C#N)c1nnc(-c2ccc3c(c2)N(Cc2ccc(-c4ccc(C(F)(F)F)nc4)cc2)C(=O)[C@@H](N)CS3(=O)=O)o1 [Example 113, 2-[5-[(3R)-3-amino-1,1,4-trioxo-5-[[4-[6-(trifluoromethyl)-3-pyridyl]phenyl]methyl]-2,3-dihydro-1λ^6,5-benzothiazepin-7-yl]-1,3,4-oxadiazol-2-yl]-2-methyl-propanenitrile] | 85 % activation | 1.32 µM |  |
| > 60 µM | 3.72 µM | Cc1nc(-c2ccc(CN3C(=O)[C@@H](N)CS(=O)(=O)c4ccc(-c5nnc(C(C)(C)C#N)o5)cc43)cc2)ccc1C(F)(F)F [Example 114] | 48 % activation | 1.05 µM |  |
| > 62.5 µM | 0.918 µM | CC(C)(C#N)c1nnc(-c2ccc3c(c2)N(Cc2ccc(-c4cc(C(F)(F)F)ccn4)cc2)C(=O)[C@@H](N)CS3(=O)=O)o1 [Example 116, 2-[5-[(3R)-3-amino-1,1,4-trioxo-5-[[4-[4-(trifluoromethyl)-2-pyridyl]phenyl]methyl]-2,3-dihydro-1λ^6,5-benzothiazepin-7-yl]-1,3,4-oxadiazol-2-yl]-2-methyl-propanenitrile] | 87 % activation | 1.03 µM |  |
| 16.4 µM | 0.814 µM | CC(C)(C#N)c1nnc(-c2ccc3c(c2)N(Cc2ccc(-c4ccc(C5CC5)cn4)cc2)C(=O)[C@@H](N)CS3(=O)=O)o1 [Example 118, 2-[5-[(3R)-3-amino-5-[[4-(5-cyclopropyl-2-pyridyl)phenyl]methyl]-1,1,4-trioxo-2,3-dihydro-1λ^6,5-benzothiazepin-7-yl]-1,3,4-oxadiazol-2-yl]-2-methyl-propanenitrile] | 172 % activation | 4.07 µM |  |
| 1.86 µM | 0.893 µM | CC(C)(C#N)c1nnc(-c2ccc3c(c2)N(Cc2ccc(-c4nc(C(F)(F)F)co4)cc2)C(=O)[C@@H](N)CS3(=O)=O)o1 [Example 123, 2-[5-[(3R)-3-amino-1,1,4-trioxo-5-[[4-[4-(trifluoromethyl)oxazol-2-yl]phenyl]methyl]-2,3-dihydro-1λ^6,5-benzothiazepin-7-yl]-1,3,4-oxadiazol-2-yl]-2-methyl-propanenitrile] | 144 % activation | 1.25 µM |  |
| 3.52 µM | 0.93 µM | COc1ccc(-c2ccc(CN3C(=O)[C@@H](N)CS(=O)(=O)c4ccc(-c5nnc(C(C)(C)C#N)o5)cc43)cc2)nc1 [Example 125] | 97 % activation | 4.28 µM |  |
| 4.38 µM | 0.541 µM | CC(C)(C#N)c1nnc(-c2ccc3c(c2)N(Cc2ccc(-c4cc(OC(F)(F)F)ccn4)cc2)C(=O)[C@@H](N)CS3(=O)=O)o1 [Example 126, 2-[5-[(3R)-3-amino-1,1,4-trioxo-5-[[4-[4-(trifluoromethoxy)-2-pyridyl]phenyl]methyl]-2,3-dihydro-1λ^6,5-benzothiazepin-7-yl]-1,3,4-oxadiazol-2-yl]-2-methyl-propanenitrile] | 254 % activation | 2.11 µM |  |
| > 60 µM | 2.45 µM | CC(C)(C#N)c1nnc(-c2ccc3c(c2)N(Cc2ccc(-c4ncc(C(F)(F)F)cn4)cc2)C(=O)[C@@H](N)CS3(=O)=O)o1 [Example 127, 2-[5-[(3R)-3-amino-1,1,4-trioxo-5-[[4-[5-(trifluoromethyl)pyrimidin-2-yl]phenyl]methyl]-2,3-dihydro-1λ^6,5-benzothiazepin-7-yl]-1,3,4-oxadiazol-2-yl]-2-methyl-propanenitrile] | 112 % activation | 4.56 µM |  |
| > 60 µM | 12.2 µM | N[C@H]1CS(=O)(=O)c2ccc(-c3nnc(C4(C(F)F)CNC4)o3)cc2N(Cc2ccc(-c3ccc(C(F)(F)F)cc3)cc2)C1=O [Example 152] | 19 % activation | > 10 µM |  |
| 5.18 µM | 0.922 µM | N[C@H]1CS(=O)(=O)c2ccc(-c3nnc(N4CCC(F)(F)CC4)o3)cc2N(Cc2ccc(-c3ccc(C(F)(F)F)cn3)cc2)C1=O [Example 160] | 55 % activation | 6.43 µM |  |
